Laboratory results taken from PMC9848269, “Investigation of novel alkyl/benzyl (4-sulphamoylphenyl)carbamimidothioates as carbonic anhydrase inhibitors” (Journal of Enzyme Inhibition and Medicinal Chemistry, 2023).
Where two headings read alike, the source gives them in different places.

Experiments:
StCA2 [1] = biological target: T1, StCA2 (Salmonella enterica, UniProt O30898); experiment: stopped-flow CO2 hydration; assay type: biochemical; conditions: 20 mM TRIS pH 8.4, 20 mM Na2SO4, CO2 1.7-17 mM; 6 h preincubation at room temperature
T1 construct: gene mig-5; recombinant, obtained in-house; beta-class CA
T1 sequence (O30898 41-246): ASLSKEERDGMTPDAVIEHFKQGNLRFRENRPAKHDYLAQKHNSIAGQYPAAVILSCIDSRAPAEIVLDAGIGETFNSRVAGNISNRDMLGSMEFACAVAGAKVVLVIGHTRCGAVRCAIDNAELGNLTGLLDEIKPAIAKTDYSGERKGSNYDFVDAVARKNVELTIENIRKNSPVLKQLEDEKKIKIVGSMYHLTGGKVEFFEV
From the text: stopped-flow CO2 hydration on StCA2

StCA1 = biological target: T2, StCA1; experiment: stopped-flow CO2 hydration; assay type: biochemical, Salmonella enterica subsp. enterica serovar Typhimurium; conditions: 20 mM TRIS pH 8.4, 20 mM Na2SO4, CO2 1.7-17 mM; 6 h preincubation at room temperature
T2 construct: recombinant, obtained in-house; beta-class CA
From the text: stopped-flow CO2 hydration on StCA1

hCA I [2] = biological target: T3, hCA I (Homo sapiens, UniProt P00915); experiment: biochemical; set-up: stopped-flow CO2 hydration assay, phenol red 557 nm, Hepes pH 7.5, recombinant alpha-CA, 6 h preincubation
T3 construct: gene CA1; recombinant, obtained in-house; cytosolic
Description: (§1) An applied photophysics stopped-flow instrument has been used for assaying the CA-catalysed CO2 hydration activity. Phenol red (at a concentration of 0.2 mM) was used as indicator, working at the absorbance maximum of 557 nm, with 20 mM Hepes (pH 7.5) as buffer for α-CAs or 20 mM TRIS (pH 8.4) as buffer for β-CAs, and 20 mM Na2SO4 (for maintaining constant the ionic strength), following the initial rates of the CA-catalysed CO2 hydration reaction for a period of 10 – 100 s. The CO2 concentrations ranged from 1.7 to 17 mM for the determination of the kinetic parameters and inhibition constants. For each inhibitor, at least six traces of the initial 5 – 10% of the reaction have been used for determining the initial velocity. The uncatalysed rates were determined in the same manner and subtracted from the total observed rates. Stock solutions of inhibitor (0.1 mM) were prepared in distilled – deionised water, and dilutions up to 0.01 nM were done thereafter with the assay buffer. Inhibitor and enzyme solutions were preincubated together for 6 h at room temperature prior to assay in order to allow for the formation of the E – I complex. The inhibition constants were obtained by nonlinear least-squares methods using PRISM 3 and the Cheng–Prusoff equation, as reported earlier[12]^,[13]^,[20]^,[21], and represent the mean from at least three different determinations. All CA isoforms were recombinant ones obtained in-house as reported earlier[22]^,[23] and their concentrations in the assay system ranged between 7.6–12.5 nM.

hCA VII [3] = biological target: T4, hCA VII (Homo sapiens, UniProt P43166); experiment: biochemical; set-up: stopped-flow CO2 hydration assay, phenol red 557 nm, Hepes pH 7.5, recombinant alpha-CA, 6 h preincubation
T4 construct: gene CA7; recombinant, obtained in-house; cytosolic
Description: as §1

hCA XIII [4] = biological target: T5, hCA XIII (Homo sapiens, UniProt Q8N1Q1); experiment: biochemical; set-up: stopped-flow CO2 hydration assay, phenol red 557 nm, Hepes pH 7.5, recombinant alpha-CA, 6 h preincubation
T5 construct: gene CA13; recombinant, obtained in-house; cytosolic
Description: as §1

hCA I [5] = biological target: T3, hCA I; experiment: biochemical; set-up: stopped-flow CO2 hydration assay, phenol red absorbance at 557 nm, Ki via Cheng-Prusoff
Description: as §1, with “nM. Sulphonamides 8a–o incorporating carbamimidothioate moieties have been tested as inhibitors of four human (h) CA isoforms, the cytosolic hCA I, II, VII and XIII, as well as the bacterial β-CAs from Mammaliicoccus (Staphylococcus) sciuri[14] and Salmonella enterica (serovar Typhimurium), StCA1 and StCA2[15]. It should be mentioned that the first bacterial enzyme, MscCA, was originally reported by us as Staphylococcus aureus β-CA, SauCA based on a genomic sequence annotated in the data bases in 2017[14]. […] In 2020, the species was renamed as belonging to a new genus, as Mammaliicoccus sciuri. The hCAs included in the study were the ubiquitous hCA I and II, as well as hCA VII and XIII which are found in fewer tissues compared to hCA I and II, and are involved in several pathologies in the CNS (hCA VII) or reproductive tract (hCA XIII)[17]^,[18].” for “nM.”

hCA II [6] = biological target: T6, hCA II (Homo sapiens, UniProt P00918); experiment: biochemical; set-up: stopped-flow CO2 hydration assay, phenol red absorbance at 557 nm, Ki via Cheng-Prusoff
T6 construct: gene CA2; recombinant, obtained in-house; cytosolic
Description: as §1, with “nM. Sulphonamides 8a–o incorporating carbamimidothioate moieties have been tested as inhibitors of four human (h) CA isoforms, the cytosolic hCA I, II, VII and XIII, as well as the bacterial β-CAs from Mammaliicoccus (Staphylococcus) sciuri[14] and Salmonella enterica (serovar Typhimurium), StCA1 and StCA2[15]. It should be mentioned that the first bacterial enzyme, MscCA, was originally reported by us as Staphylococcus aureus β-CA, SauCA based on a genomic sequence annotated in the data bases in 2017[14]. […] In 2020, the species was renamed as belonging to a new genus, as Mammaliicoccus sciuri. The hCAs included in the study were the ubiquitous hCA I and II, as well as hCA VII and XIII which are found in fewer tissues compared to hCA I and II, and are involved in several pathologies in the CNS (hCA VII) or reproductive tract (hCA XIII)[17]^,[18].” for “nM.”

hCA VII [7] = biological target: T4, hCA VII; experiment: biochemical; set-up: stopped-flow CO2 hydration assay, phenol red absorbance at 557 nm, Ki via Cheng-Prusoff
Description: as §1, with “nM. Sulphonamides 8a–o incorporating carbamimidothioate moieties have been tested as inhibitors of four human (h) CA isoforms, the cytosolic hCA I, II, VII and XIII, as well as the bacterial β-CAs from Mammaliicoccus (Staphylococcus) sciuri[14] and Salmonella enterica (serovar Typhimurium), StCA1 and StCA2[15]. It should be mentioned that the first bacterial enzyme, MscCA, was originally reported by us as Staphylococcus aureus β-CA, SauCA based on a genomic sequence annotated in the data bases in 2017[14]. […] In 2020, the species was renamed as belonging to a new genus, as Mammaliicoccus sciuri. The hCAs included in the study were the ubiquitous hCA I and II, as well as hCA VII and XIII which are found in fewer tissues compared to hCA I and II, and are involved in several pathologies in the CNS (hCA VII) or reproductive tract (hCA XIII)[17]^,[18].” for “nM.”

hCA XIII [8] = biological target: T5, hCA XIII; experiment: biochemical; set-up: stopped-flow CO2 hydration assay, phenol red absorbance at 557 nm, Ki via Cheng-Prusoff
Description: as §1, with “nM. Sulphonamides 8a–o incorporating carbamimidothioate moieties have been tested as inhibitors of four human (h) CA isoforms, the cytosolic hCA I, II, VII and XIII, as well as the bacterial β-CAs from Mammaliicoccus (Staphylococcus) sciuri[14] and Salmonella enterica (serovar Typhimurium), StCA1 and StCA2[15]. It should be mentioned that the first bacterial enzyme, MscCA, was originally reported by us as Staphylococcus aureus β-CA, SauCA based on a genomic sequence annotated in the data bases in 2017[14]. […] In 2020, the species was renamed as belonging to a new genus, as Mammaliicoccus sciuri. The hCAs included in the study were the ubiquitous hCA I and II, as well as hCA VII and XIII which are found in fewer tissues compared to hCA I and II, and are involved in several pathologies in the CNS (hCA VII) or reproductive tract (hCA XIII)[17]^,[18].” for “nM.”

StCA2 [9] = biological target: T1, StCA2; set-up: stopped-flow CO2 hydration assay, phenol red absorbance at 557 nm, Ki via Cheng-Prusoff; conditions: inhibitor
Description: as §1, with “All CA isoforms were recombinant ones obtained in-house as reported earlier[22]^,[23] and their concentrations in the assay system ranged between 7.6–12.5 nM.” left out

hCA II [10] = biological target: T6, hCA II; experiment: biochemical; set-up: stopped-flow CO2 hydration assay, phenol red 557 nm, Hepes pH 7.5, recombinant alpha-CA, 6 h preincubation
Description: as §1

StCA2 [11] = biological target: T1, StCA2; set-up: stopped-flow CO2 hydration assay, phenol red 557 nm, TRIS pH 8.4, recombinant beta-CA, 6 h preincubation; conditions: inhibitor
Description: as §1, with “For each inhibitor, at least six traces of the initial 5 – 10% of the reaction have been used for determining the initial velocity.” left out

hCA II [12] = biological target: T6, hCA II; experiment: stopped-flow CO2 hydration; assay type: biochemical
From the text: stopped-flow CO2 hydration on hCA II

hCA XIII [13] = biological target: T5, hCA XIII; experiment: stopped-flow CO2 hydration; assay type: biochemical
From the text: stopped-flow CO2 hydration on hCA XIII

hCA I [14] = biological target: T3, hCA I; experiment: stopped-flow CO2 hydration; assay type: biochemical
From the text: stopped-flow CO2 hydration on hCA I

hCA VII [15] = biological target: T4, hCA VII; experiment: stopped-flow CO2 hydration; assay type: biochemical
From the text: stopped-flow CO2 hydration on hCA VII

T5 sequence (Q8N1Q1 whole entry): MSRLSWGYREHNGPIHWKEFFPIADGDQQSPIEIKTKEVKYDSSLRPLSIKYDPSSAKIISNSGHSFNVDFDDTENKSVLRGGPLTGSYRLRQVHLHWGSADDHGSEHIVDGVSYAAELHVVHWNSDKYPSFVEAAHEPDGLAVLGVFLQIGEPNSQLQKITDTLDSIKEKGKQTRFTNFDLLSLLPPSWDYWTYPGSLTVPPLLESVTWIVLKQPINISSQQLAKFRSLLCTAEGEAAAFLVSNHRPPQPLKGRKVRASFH
T4 sequence (P43166 whole entry): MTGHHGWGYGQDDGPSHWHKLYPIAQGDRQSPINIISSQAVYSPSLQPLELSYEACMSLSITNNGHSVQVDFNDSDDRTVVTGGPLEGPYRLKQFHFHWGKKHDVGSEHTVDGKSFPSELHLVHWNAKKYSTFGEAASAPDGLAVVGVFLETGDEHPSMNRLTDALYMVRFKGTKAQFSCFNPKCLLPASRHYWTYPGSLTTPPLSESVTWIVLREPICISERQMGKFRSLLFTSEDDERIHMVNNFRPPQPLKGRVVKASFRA
T3 sequence (P00915 2-261): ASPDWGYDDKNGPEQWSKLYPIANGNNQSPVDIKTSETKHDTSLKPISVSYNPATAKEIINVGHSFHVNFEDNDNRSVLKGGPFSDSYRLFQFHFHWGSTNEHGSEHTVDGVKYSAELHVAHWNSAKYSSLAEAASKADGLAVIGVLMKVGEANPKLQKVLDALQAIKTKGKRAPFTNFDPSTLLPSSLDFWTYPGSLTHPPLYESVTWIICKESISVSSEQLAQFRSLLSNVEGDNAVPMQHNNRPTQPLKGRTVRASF

Compound | Ki (hCA I [2]) [nM] | Ki (hCA VII [3]) [nM] | Ki (hCA XIII [4]) [nM] | Ki (hCA II [10]) [nM] | Ki (StCA2 [11]) [nM] | further results
NC(=Nc1ccc(S(N)(=O)=O)cc1)SCc1ccccc1 [8g, Benzyl (4-sulphamoylphenyl)carbamimidothioate] | 68.1 | 2.4 | 491 |  |  | Ki (StCA2 [1]): 902 nM; Ki (StCA1): 52.2 nM
CCCCCCSC(=N)Nc1ccc(S(N)(=O)=O)cc1 [8c, Hexyl (4-sulphamoylphenyl)carbamimidothioate] |  |  |  |  |  | Ki (hCA I [5]): 78.8 nM; Ki (hCA II [6]): 2.5 nM; Ki (hCA VII [7]): 2.3 nM; Ki (hCA XIII [8]): 92.2 nM; Ki (StCA2 [9]): 898 nM
NC(=Nc1ccc(S(N)(=O)=O)cc1)SCc1ccc([N+](=O)[O-])cc1 [8k] | 77.2 | 2.6 | 856 | 9 | 6850 | 
C#CCSC(N)=Nc1ccc(S(N)(=O)=O)cc1 [8f, Prop-2-yn-1-yl (4-sulphamoylphenyl)carbamimidothioate] | 92.5 | 5.5 | 352 |  | 7120 | Ki (hCA II [12]): 6.9 nM
NC(=Nc1ccc(S(N)(=O)=O)cc1)SCc1ccc(Cl)cc1 [8h, 4-Chlorobenzyl (4-sulphamoylphenyl)carbamimidothioate] | 73.2 | 2 | 892 | 34.4 | 6680 | 
NC(=Nc1ccc(S(N)(=O)=O)cc1)SCc1ccc(C(F)(F)F)cc1 [8l, 4-(Trifluoromethyl)benzyl (4-sulphamoylphenyl)carbamimidothioate] | 73.5 | 2.3 |  | 8.9 | 5890 | Ki (hCA XIII [13]): 80.5 nM
CSC(N)=Nc1ccc(S(N)(=O)=O)cc1 [8a, Methyl (4-sulphamoylphenyl)carbamimidothioate] | 90.4 | 18.9 |  | 85.8 |  | Ki (StCA2 [1]): 270 nM; Ki (hCA XIII [13]): 97.5 nM
NC(=Nc1ccc(S(N)(=O)=O)cc1)SCc1ccc(Br)cc1 [8i, 4-Bromobenzyl (4-sulphamoylphenyl)carbamimidothioate] |  | 2.1 | 907 | 29.9 | 9700 | Ki (hCA I [14]): 60 nM
CCCCCCCSC(N)=Nc1ccc(S(N)(=O)=O)cc1 [8d, Heptyl (4-sulphamoylphenyl)carbamimidothioate] |  | 2.7 | 926 | 9.3 | 955 | Ki (StCA1): 71.3 nM
N#Cc1ccc(CSC(N)=Nc2ccc(S(N)(=O)=O)cc2)cc1 [8j, 4-Cyanobenzyl (4-sulphamoylphenyl)carbamimidothioate] | 82.8 |  | 302 | 21.5 | 5190 | Ki (hCA VII [15]): 1.5 nM; Ki (StCA1): 55.7 nM
NC(=Nc1ccc(S(N)(=O)=O)cc1)SCc1cc(F)cc(F)c1 [8m, 3,5-Difluorobenzyl (4-sulphamoylphenyl)carbamimidothioate] | 82.2 |  |  |  | 6310 | Ki (hCA VII [15]): 1.2 nM; Ki (hCA II [12]): 1.7 nM; Ki (hCA XIII [13]): 75.6 nM
CCCCSC(N)=Nc1ccc(S(N)(=O)=O)cc1 [8b, Butyl (4-sulphamoylphenyl)carbamimidothioate] | 76.4 | 13.8 |  | 73.6 |  | Ki (StCA2 [1]): 348 nM
C=CCSC(N)=Nc1ccc(S(N)(=O)=O)cc1 [8e, Allyl (4-sulphamoylphenyl)carbamimidothioate] |  |  | 814 |  | 4990 | Ki (hCA I [14]): 38.5 nM; Ki (hCA VII [15]): 1.8 nM; Ki (hCA II [12]): 8.2 nM
